Values belong to the compound of their own block, whether it stands above or below them.
How the values were obtained:
[1] = target: Adenosine receptor A2a (Homo sapiens) (UniProt P29274); assay: A2A (h) Eurofins-Cerep binding assay; parameters: ligand concentration 6 nM; conditions: filed as agonist, Compound concentration 10.0 uM
[2] = target: Endothelin-1 receptor (Homo sapiens) (UniProt P25101); assay: ETA (h) Eurofins-Cerep binding assay; parameters: ligand concentration 0.03 nM; conditions: filed as agonist, Compound concentration 10.0 uM
[3] = target: L-type Ca2+ channel (verapamil site, phenylalkylamine) (Rattus norvegicus, UniProt P22002+P27732+Q02485); assay: Ca2+ channel (L, verapamil site) (phenylalkylamine) Eurofins-Cerep binding assay; format: protein assay; parameters: incubation time 120 min, incubation temperature RT, ligand concentration 3 nM; conditions: rat cerebral cortex, probe [3H]D888, compound concentration 10 uM, read-out: % Inhibition of Control Specific Binding (Mean n=2)
[4] = target: T1, Delta-type opioid receptor (Homo sapiens, UniProt P41143); assay: delta (DOP) (h) Eurofins-Cerep binding assay; parameters: ligand concentration 0.5 nM; conditions: filed as agonist, Compound concentration 10.0 uM
[5] = target: Cholecystokinin receptor type A (Homo sapiens) (UniProt P32238); assay: CCK1 (CCKA) (h) Eurofins-Cerep binding assay; parameters: ligand concentration 0.08 nM; conditions: filed as agonist, Compound concentration 10.0 uM
[6] = target: Adenosine receptor A3 (Homo sapiens) (UniProt P0DMS8); assay: A3 (h) Eurofins-Cerep binding assay; parameters: ligand concentration 0.15 nM; conditions: filed as agonist, Compound concentration 10.0 uM
[7] = target: D(2) dopamine receptor (Homo sapiens) (UniProt P14416); assay: D2S (h) Eurofins-Cerep binding assay; parameters: ligand concentration 0.3 nM; conditions: filed as antagonist, Compound concentration 10.0 uM
[8] = target: Somatostatin receptor (Mus musculus) (UniProt P30935+O08858+P30875+P30873+P49660); assay: sst (non-selective) Eurofins-Cerep binding assay; format: protein assay; parameters: ligand concentration 0.05 nM; conditions: filed as agonist, Compound concentration 10.0 uM
[9] = target: B2 bradykinin receptor (Homo sapiens) (UniProt P30411); assay: B2 (h) Eurofins-Cerep binding assay; parameters: ligand concentration 0.3 nM; conditions: filed as agonist, Compound concentration 10.0 uM
[10] = target: Cannabinoid receptor 1 (Homo sapiens) (UniProt P21554); assay: CB1 (h) Eurofins-Cerep binding assay; parameters: ligand concentration 0.5 nM; conditions: filed as agonist, Compound concentration 10.0 uM
[11] = target: T2, 5-hydroxytryptamine receptor 3A (Homo sapiens) (UniProt P46098); assay: 5-HT3 (h) Eurofins-Cerep binding assay; parameters: ligand concentration 0.5 nM; conditions: filed as antagonist, Compound concentration 10.0 uM
T2 sequence (whole entry): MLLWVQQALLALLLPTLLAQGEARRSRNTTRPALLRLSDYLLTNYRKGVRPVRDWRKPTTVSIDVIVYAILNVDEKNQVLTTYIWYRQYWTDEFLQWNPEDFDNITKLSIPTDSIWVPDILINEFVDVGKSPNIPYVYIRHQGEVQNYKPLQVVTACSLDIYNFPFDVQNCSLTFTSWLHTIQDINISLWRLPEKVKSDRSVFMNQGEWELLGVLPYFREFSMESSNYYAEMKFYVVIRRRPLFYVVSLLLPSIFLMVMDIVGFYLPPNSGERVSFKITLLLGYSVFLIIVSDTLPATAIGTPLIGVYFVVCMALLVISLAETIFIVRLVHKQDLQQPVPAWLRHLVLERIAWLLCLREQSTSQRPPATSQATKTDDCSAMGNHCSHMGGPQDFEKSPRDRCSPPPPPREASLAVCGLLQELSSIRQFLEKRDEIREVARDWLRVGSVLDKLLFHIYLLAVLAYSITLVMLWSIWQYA

[12] = target: Kappa-type opioid receptor (Homo sapiens) (UniProt P41145); assay: kappa (h) (KOP) Eurofins-Cerep binding assay; parameters: ligand concentration 0.5 nM; conditions: filed as agonist, Compound concentration 10.0 uM
[13] = species on record: Rattus norvegicus; assay: SKCa channel Eurofins-Cerep binding assay; parameters: ligand concentration 0.007 nM; conditions: filed as antagonist, Compound concentration 10.0 uM
[14] = target: Substance-K receptor (Homo sapiens) (UniProt P21452); assay: NK2 (h) Eurofins-Cerep binding assay; parameters: ligand concentration 0.1 nM; conditions: filed as agonist, Compound concentration 10.0 uM
[15] = target: Vasoactive intestinal polypeptide receptor 1 (Homo sapiens) (UniProt P32241); assay: VPAC1 (VIP1) (h) Eurofins-Cerep binding assay; parameters: ligand concentration 0.04 nM; conditions: filed as agonist, Compound concentration 10.0 uM
[16] = target: L-type Ca2+ channel (dihydropyridine site) (Rattus norvegicus, UniProt P22002+P27732+Q02485); assay: Ca2+ channel (L, dihydropyridine site) Eurofins-Cerep binding assay; format: protein assay; parameters: incubation time 90 min, incubation temperature RT, ligand concentration 0.1 nM; conditions: rat cerebral cortex, probe [3H]nitrendipine, compound concentration 10 uM, read-out: % Inhibition of Control Specific Binding (Mean n=2)
[17] = target: Histamine H2 receptor (Homo sapiens) (UniProt P25021); assay: H2 (h) Eurofins-Cerep binding assay; parameters: ligand concentration 0.075 nM; conditions: filed as antagonist, Compound concentration 10.0 uM
[18] = target: Prostaglandin E2 receptor EP4 subtype (Homo sapiens) (UniProt P35408); assay: EP4 (h) Eurofins-Cerep binding assay; parameters: ligand concentration 0.5 nM; conditions: filed as agonist, Compound concentration 10.0 uM
[19] = target: Neuropeptide Y receptor type 1 (Homo sapiens) (UniProt P25929); assay: Y1 (h) Eurofins-Cerep binding assay; parameters: ligand concentration 0.025 nM; conditions: filed as agonist, Compound concentration 10.0 uM
[20] = target: Muscarinic acetylcholine receptor M3 (Homo sapiens) (UniProt P20309); conditions: Compound concentration 10.0 uM
[21] = target: Adenosine receptor A1 (Homo sapiens) (UniProt P30542); assay: A1 (h) Eurofins-Cerep binding assay; parameters: ligand concentration 1 nM; conditions: filed as antagonist, Compound concentration 10.0 uM
[22] = target: Type-1 angiotensin II receptor (Homo sapiens) (UniProt P30556); assay: AT1 (h) Eurofins-Cerep binding assay; parameters: ligand concentration 0.05 nM; conditions: filed as antagonist, Compound concentration 10.0 uM
[23] = target: Sodium-dependent dopamine transporter (Homo sapiens, UniProt Q01959); assay: GPCRScan assay: inhibition of DAT; parameters: radioligand conc. used [nm] 3.6 – 16.0, parental cells stable HEK
[24] = target: Kappa-type opioid receptor (Homo sapiens) (UniProt P41145); conditions: Compound concentration 10.0 uM
[25] = target: T1, Delta-type opioid receptor; assay: GPCRScan assay: inhibition of DOR; parameters: radioligand conc. used [nm] 1.0 – 2.0, parental cells stable HEK
[26] = target: Monocarboxylate transporter 1 (Homo sapiens, UniProt P53985); assay: Lactate efflux inhibition assay (SNU-398)
[27] = target: 5-hydroxytryptamine receptor 1D (Homo sapiens) (UniProt P28221); conditions: Compound concentration 10.0 uM
[28] = target: Histamine H3 receptor (Homo sapiens) (UniProt Q9Y5N1); conditions: Compound concentration 10.0 uM
[29] = target: Monocarboxylate transporter 1/4 (Homo sapiens, UniProt P53985+O15427); assay: Lactate efflux inhibition assay (MiaPaCa2 ); format: protein assay
[30] = target: 5-hydroxytryptamine receptor 1E (Homo sapiens, UniProt P28566); conditions: Compound concentration 10.0 uM
[31] = target: Sigma intracellular receptor 2 (Homo sapiens) (UniProt Q5BJF2); conditions: Compound concentration 10.0 uM
[32] = target: 5-hydroxytryptamine receptor 1B (Homo sapiens) (UniProt P28222); conditions: Compound concentration 10.0 uM
[33] = target: 5-hydroxytryptamine receptor 6 (Homo sapiens, UniProt P50406); assay: GPCRScan assay: inhibition of 5-HT6; parameters: radioligand conc. used [nm] 2.0 – 4.0, parental cells stable HEK
[34] = target: Mu-type opioid receptor (Homo sapiens) (UniProt P35372); conditions: Compound concentration 10.0 uM
[35] = GPCRScan assay: inhibition of GABA/PBR; parameters: species or system Rattus norvegicus; radioligand conc. used [nm] 0.3 – 2.0, parental cells brain tissue

T1 sequence (P41143 whole entry): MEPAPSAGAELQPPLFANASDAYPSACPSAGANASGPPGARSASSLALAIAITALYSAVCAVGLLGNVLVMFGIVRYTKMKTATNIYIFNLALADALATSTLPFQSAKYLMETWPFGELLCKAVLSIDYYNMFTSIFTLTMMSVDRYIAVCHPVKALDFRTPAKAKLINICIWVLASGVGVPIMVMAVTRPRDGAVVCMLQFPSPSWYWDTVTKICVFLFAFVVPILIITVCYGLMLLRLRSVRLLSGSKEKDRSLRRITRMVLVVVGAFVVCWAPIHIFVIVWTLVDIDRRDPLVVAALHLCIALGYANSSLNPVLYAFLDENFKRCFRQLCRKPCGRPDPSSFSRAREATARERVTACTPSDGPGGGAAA
Chain of Sodium-dependent dopamine transporter (Q01959 whole entry): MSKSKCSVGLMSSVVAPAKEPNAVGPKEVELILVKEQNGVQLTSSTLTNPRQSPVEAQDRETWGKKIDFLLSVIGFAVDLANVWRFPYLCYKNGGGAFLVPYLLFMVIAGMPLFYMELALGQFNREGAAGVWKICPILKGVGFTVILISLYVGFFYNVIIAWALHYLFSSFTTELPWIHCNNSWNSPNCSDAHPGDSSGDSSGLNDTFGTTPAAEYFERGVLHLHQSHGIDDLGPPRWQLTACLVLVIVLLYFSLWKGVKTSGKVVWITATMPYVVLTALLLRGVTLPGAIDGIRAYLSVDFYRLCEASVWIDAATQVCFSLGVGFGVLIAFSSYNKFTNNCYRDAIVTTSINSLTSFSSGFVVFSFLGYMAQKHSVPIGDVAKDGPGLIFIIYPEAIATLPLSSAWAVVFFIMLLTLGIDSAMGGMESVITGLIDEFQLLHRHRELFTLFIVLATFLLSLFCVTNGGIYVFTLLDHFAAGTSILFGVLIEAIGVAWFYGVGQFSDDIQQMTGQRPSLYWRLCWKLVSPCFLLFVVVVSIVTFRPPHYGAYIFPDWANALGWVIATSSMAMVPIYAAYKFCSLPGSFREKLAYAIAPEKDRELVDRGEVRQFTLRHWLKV
Chain of 5-hydroxytryptamine receptor 6 (P50406 whole entry): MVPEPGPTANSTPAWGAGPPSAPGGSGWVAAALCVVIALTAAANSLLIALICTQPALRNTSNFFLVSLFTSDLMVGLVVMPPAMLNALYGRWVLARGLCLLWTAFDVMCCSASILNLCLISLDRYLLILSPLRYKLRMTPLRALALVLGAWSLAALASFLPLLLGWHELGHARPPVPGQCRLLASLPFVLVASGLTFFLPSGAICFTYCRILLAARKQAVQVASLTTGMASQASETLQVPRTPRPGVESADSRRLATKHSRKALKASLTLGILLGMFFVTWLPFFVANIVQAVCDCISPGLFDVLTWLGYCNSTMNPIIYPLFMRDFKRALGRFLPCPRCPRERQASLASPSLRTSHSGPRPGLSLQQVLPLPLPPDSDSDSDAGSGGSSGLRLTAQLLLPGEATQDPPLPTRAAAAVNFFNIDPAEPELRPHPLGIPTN
Chain of Kappa-type opioid receptor (Homo sapiens) (P41145 whole entry): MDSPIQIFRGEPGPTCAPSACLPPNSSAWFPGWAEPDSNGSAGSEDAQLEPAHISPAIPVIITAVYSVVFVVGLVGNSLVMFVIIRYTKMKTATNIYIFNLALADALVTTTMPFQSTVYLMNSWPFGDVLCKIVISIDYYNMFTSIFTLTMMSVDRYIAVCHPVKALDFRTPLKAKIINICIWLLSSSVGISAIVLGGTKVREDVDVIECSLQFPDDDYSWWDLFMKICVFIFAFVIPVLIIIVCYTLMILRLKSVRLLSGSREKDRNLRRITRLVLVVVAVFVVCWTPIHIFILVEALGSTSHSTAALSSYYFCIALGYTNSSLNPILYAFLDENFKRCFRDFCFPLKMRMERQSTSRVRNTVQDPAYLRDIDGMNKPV
Chain of Neuropeptide Y receptor type 1 (Homo sapiens) (P25929 whole entry): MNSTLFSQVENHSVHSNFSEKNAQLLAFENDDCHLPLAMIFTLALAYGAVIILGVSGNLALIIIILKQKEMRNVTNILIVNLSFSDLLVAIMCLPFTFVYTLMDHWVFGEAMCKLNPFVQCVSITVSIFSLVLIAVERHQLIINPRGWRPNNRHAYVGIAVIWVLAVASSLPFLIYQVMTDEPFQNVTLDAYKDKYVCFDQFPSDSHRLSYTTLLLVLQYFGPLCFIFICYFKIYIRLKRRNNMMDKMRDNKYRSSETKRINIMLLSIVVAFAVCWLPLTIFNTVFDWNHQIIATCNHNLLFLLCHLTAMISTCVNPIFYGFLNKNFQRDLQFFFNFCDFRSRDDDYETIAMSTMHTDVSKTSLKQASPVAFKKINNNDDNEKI
Chain of Histamine H3 receptor (Homo sapiens) (Q9Y5N1 whole entry): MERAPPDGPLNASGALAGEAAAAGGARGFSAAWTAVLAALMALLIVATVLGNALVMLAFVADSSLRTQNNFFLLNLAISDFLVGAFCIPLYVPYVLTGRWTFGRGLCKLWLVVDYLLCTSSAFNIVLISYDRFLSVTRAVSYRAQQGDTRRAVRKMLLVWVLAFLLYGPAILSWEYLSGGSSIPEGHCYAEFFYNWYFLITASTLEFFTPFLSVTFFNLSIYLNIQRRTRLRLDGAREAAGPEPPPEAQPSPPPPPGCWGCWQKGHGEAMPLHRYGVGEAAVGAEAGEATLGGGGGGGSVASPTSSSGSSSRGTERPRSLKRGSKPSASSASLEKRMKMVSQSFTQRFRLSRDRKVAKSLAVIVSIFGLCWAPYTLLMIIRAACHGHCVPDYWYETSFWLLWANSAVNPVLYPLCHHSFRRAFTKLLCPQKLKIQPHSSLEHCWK
Chain of Endothelin-1 receptor (Homo sapiens) (P25101 whole entry): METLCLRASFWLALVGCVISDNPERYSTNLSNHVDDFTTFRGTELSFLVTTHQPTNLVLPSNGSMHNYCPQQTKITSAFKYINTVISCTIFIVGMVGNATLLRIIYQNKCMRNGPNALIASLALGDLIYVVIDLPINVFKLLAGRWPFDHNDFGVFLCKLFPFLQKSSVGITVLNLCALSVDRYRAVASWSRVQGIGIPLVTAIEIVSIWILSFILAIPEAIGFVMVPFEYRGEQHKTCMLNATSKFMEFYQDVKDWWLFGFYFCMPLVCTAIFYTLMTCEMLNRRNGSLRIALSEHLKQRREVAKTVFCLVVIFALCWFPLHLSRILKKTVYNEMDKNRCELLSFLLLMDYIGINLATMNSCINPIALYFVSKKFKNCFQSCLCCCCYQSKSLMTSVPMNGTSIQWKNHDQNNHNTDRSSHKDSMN
Chain of Cholecystokinin receptor type A (Homo sapiens) (P32238 whole entry): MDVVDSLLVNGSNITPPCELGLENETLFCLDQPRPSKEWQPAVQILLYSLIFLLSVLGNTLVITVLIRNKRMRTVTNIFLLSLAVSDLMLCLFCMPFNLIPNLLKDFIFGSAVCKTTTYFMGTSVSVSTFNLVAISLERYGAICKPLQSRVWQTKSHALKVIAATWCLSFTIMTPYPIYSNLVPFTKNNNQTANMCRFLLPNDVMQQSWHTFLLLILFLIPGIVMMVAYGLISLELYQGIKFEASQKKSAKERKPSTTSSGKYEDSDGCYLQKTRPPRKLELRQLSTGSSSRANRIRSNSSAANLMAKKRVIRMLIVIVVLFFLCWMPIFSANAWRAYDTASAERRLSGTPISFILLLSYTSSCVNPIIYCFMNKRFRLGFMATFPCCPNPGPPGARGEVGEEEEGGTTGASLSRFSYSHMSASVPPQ
Chain of Monocarboxylate transporter 1 (P53985 whole entry): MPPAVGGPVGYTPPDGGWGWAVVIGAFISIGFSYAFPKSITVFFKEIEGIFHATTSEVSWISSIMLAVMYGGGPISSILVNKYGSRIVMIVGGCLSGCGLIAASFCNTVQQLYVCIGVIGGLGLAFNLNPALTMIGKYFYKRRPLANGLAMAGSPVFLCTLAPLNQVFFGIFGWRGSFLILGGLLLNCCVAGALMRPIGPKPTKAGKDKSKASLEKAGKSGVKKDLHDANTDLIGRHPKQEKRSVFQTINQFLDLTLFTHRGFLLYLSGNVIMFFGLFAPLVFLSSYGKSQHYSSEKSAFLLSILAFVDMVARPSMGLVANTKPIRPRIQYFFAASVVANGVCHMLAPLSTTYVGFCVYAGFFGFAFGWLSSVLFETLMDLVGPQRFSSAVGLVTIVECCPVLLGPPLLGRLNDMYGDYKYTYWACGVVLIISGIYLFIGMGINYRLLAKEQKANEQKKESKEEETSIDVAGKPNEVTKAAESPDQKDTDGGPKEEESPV
Chain of Cannabinoid receptor 1 (Homo sapiens) (P21554 whole entry): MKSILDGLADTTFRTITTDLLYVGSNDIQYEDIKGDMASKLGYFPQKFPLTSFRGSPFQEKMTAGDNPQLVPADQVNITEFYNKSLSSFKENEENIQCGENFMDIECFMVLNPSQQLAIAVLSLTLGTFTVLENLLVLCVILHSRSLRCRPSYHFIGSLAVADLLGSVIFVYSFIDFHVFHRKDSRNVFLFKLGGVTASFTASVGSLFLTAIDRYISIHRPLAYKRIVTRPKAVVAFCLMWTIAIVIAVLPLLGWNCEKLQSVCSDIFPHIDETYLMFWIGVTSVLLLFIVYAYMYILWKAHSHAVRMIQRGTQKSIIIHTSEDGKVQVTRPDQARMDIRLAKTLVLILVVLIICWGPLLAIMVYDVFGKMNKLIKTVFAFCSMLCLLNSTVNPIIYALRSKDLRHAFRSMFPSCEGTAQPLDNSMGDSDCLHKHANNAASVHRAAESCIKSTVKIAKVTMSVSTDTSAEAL
Chain of B2 bradykinin receptor (Homo sapiens) (P30411 whole entry): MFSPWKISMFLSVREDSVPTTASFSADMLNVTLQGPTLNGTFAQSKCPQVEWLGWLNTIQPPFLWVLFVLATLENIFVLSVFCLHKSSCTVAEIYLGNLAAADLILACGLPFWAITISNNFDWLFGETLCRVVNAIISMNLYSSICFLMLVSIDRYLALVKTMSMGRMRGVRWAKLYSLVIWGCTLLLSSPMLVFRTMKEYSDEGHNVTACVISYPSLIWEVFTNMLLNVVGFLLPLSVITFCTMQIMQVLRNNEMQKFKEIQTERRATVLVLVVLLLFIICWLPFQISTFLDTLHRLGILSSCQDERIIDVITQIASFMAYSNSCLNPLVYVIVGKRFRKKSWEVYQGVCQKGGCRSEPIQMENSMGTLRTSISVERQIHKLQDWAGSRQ

% Inhibition of Control Specific Binding (Mean n=2) [1]: -5.5%
% Inhibition of Control Specific Binding (Mean n=2) [2]: -0.2%
inhibition at 120 min, 10 µM [3]: -9.8%
% Inhibition of Control Specific Binding (Mean n=2) [4]: 11.7%
% Inhibition of Control Specific Binding (Mean n=2) [5]: -18.1%
% Inhibition of Control Specific Binding (Mean n=2) [6]: 28.1%
% Inhibition of Control Specific Binding (Mean n=2) [7]: 9.2%
% Inhibition of Control Specific Binding (Mean n=2) [8]: -21.6%
% Inhibition of Control Specific Binding (Mean n=2) [9]: -1.1%
% Inhibition of Control Specific Binding (Mean n=2) [10]: -11.3%
% Inhibition of Control Specific Binding (Mean n=2) [11]: -8%
% Inhibition of Control Specific Binding (Mean n=2) [12]: -12.1%
% Inhibition of Control Specific Binding (Mean n=2) [13]: -6.7%
% Inhibition of Control Specific Binding (Mean n=2) [14]: 46%
% Inhibition of Control Specific Binding (Mean n=2) [15]: -3.2%
inhibition at 90 min, 10 µM [16]: -11%
% Inhibition of Control Specific Binding (Mean n=2) [17]: -16.1%
% Inhibition of Control Specific Binding (Mean n=2) [18]: 47.2%
% Inhibition of Control Specific Binding (Mean n=2) [19]: -7.5%
inhibition [20]: 9.34%
% Inhibition of Control Specific Binding (Mean n=2) [21]: 56.2%
% Inhibition of Control Specific Binding (Mean n=2) [22]: 4.2%
SMILES: CCOc1ccc(S(=O)(=O)Nc2ccc(Cl)cc2C#Cc2cnc(C(=O)O)cc2OC)c2ncccc12 [MSC-4381]

Ki ([23]; read-out: Ki): 9590 nM
Ki ([23]; read-out: pKi (converted)): 9550 nM
inhibition [24]: 11%
Ki ([25]; read-out: Ki): 598 nM
Ki ([25]; read-out: pKi (converted)): 589 nM
IC50 [26]: > 4000 nM (not active)
inhibition [27]: 11.4%
inhibition [28]: 6.76%
IC50 [29]: > 4000 nM
inhibition [30]: 20.6%
inhibition [31]: 25%
inhibition [32]: 10.6%
Ki ([33]; read-out: Ki): 1520 nM
Ki ([33]; read-out: pKi (converted)): 1450 nM
inhibition [34]: 35.4%
Ki [35]: 734 nM
pKi [35]: 6.14
SMILES: COc1cc(C(=O)O)ncc1C#Cc1ccccc1NS(=O)(=O)c1cccc2c(N(C)C)ccnc12 [MSC-0516]

— ChEMBL document CHEMBL4800726, “Data for DCP probe MSC-4381” (2021)
